Consider 16 compounds from article PMC9781268, “2-Arylpropionic Acid Pyrazolamides as Cannabinoid CB2 Receptor Inverse Agonists Endowed with Anti-Inflammatory Properties” (Pharmaceuticals, 2022).

The nature of series [1]: Parallel artificial membrane permeability assay, blood-brain barrier (PAMPA-BBB). To be noted: for PAMPA-BBB Score: porcine brain lipid membrane. Here is the method:
In a 5 mL glass vial, 1 mg of each compound (test or control) was dissolved in 1 mL of ethanol. Then, 500 μL of ethanol and 3.5 mL of PBS at pH 7.4 were added to this solution. […] After 5 min, the donor plate received 180 μL of each compound solution in triplicate. […] The experiments were performed in triplicate with two different analyses (n = 2).

For series [2] the following is noted: Table S2, PAMPA-BBB, drugs used as standard; cited from earlier work.
A short description of series [3]: Aqueous solubility (thermodynamic, UV spectroscopy). It counts as physicochemical. To be noted: aqueous buffer, thermodynamic from solid, phosphate buffer pH 7.4, 37 °C. Here is the method:
The test was performed based on the absorbance obtained by ultraviolet spectroscopy. The scanning wavelength was determined according to the highest absorbance observed for each compound. Saturated aqueous solution of the analyzed compounds were stirred for 4 h at 37 °C, and then filtered through a 0.45 µm PVDF filter and transferred to a quartz cuvette (10 mm optical path) for reading. Solubility was determined by linear regression based on the equation of the line.

A short description of series [4]: Distribution coefficient at pH 7.4 (shake-flask, octanol/phosphate buffer). It counts as physicochemical. The conditions noted are these: 1-octanol/buffer pH 7.4; n-octanol/buffer partitioning at pH 7.4, UV method; read-out: Log D7.4. Here is the method: The assay was performed based on the shake-flask method and the absorbance readings by ultraviolet spectroscopy at maximum absorbance wavelength. To a Falcon tube with a capacity of 15 mL, 5 mL of buffer solution at pH 7.4 and 5 mL of 1-octanol were added. Then, the tested compounds were added at defined concentrations of approximately 10–15 µM, and the mixtures were homogenized via vigorous manual shaking. Next, the Falcon tubes were stirred for 4 h at 37 °C, and the experiment was carried out in triplicate for each compound. Subsequently, each sample was placed in a separatory funnel, and the collected aqueous phase was filtered through a 0.45 µm PVDF filter and transferred to a quartz cuvette (10 mm optical path) for UV/Vis reading. The distribution coefficient of each compound at pH 7.4 was determined by linear regression using the straight-line equation [33].

Series [5] has as its system plasma carboxylesterases. Description: Plasma stability against enzymatic hydrolysis. It counts as in vitro ADME, Wistar rats. The conditions noted are these: rat plasma, determined after 240 min. Here is the method:
For the evaluation of plasma stability against plasma carboxylesterases, a pool of plasma male Wistar rats weighing 300–360 g kept in the vivarium of the Laboratory of Biochemical and Molecular Pharmacology-UFRJ was used. Blood was collected with heparin and kept on ice. Then, the samples were centrifuged at 2000 rpm for 15 min at 20 °C, with subsequent removal of the plasma. The plasma was then diluted 80% (v/v) with phosphate buffer (PBS; pH = 7.4) at 37 °C. The experiments performed in this work were approved by the Ethics Committee on the Use of Animals in Scientific Experiments of the Health Sciences Center of the Federal University of Rio de Janeiro (Number 028/15). The biological matrix was incubated at 37 °C under agitation for 30, 60, 120, and 240 min. The degree of degradation was evaluated by HPLC-PDA with methyl 1,1′bisphenyl-4-carboxylate as an internal standard (PI), using an isocratic mobile phase of 70%:30% acetonitrile:water (0–15 min), an injection volume of 20 μL, a flow rate of 1 mL/min, and detection at 254 nm.

The nature of series [6]: Parallel artificial membrane permeability assay, gastrointestinal (PAMPA-GI / PAMPA-GTI). To be noted: for Papp at 8 h, 0.5 mM: PAMPA; for Classification / Pe Exp / Fa: Table S1, PAMPA-GTI; for Fa / PAMPA-GI Fa Exp: absorbed fraction; for PAMPA-GI Fa Exp: soybean L-α-phosphatidylcholine membrane.
Description: A 10 mM solution of each compound (tests and controls) was prepared in DMSO. Then, in a 5 mL glass flask, 250 µL of the freshly prepared solution was homogenized with 4750 µL of PBS at pH 6.6 to a concentration of 10 mM. The solution was then filtered in a 0.45 µm PVDF filter and set aside. Then, 180 µL of a solution of phosphate-bufffered saline (PBS, pH 7.4):DMSO (95:5) was added to the wells of the receptor plate, and 5 µL of the soy L-α-phosphatidylcholine lipid solution (20 mg/mL in dodecane) was added to the wells of the donor plate. After 5 min, the donor plate received 180 µL of the reserved solution containing each compound. […] After this period, the donor plate was removed, and the contents of the recipient plate were transferred to a UV reading plate and read (SpectraMax 5, Molecular Devices) at the maximum wavelengths for each compound. The blank was prepared with 180 µL of PBS solution (pH 7.4):DMSO (95:5). The experiments were carried out in triplicate with two different analyses (n = 2) [37]. The optical density values obtained from the readings at each selected wavelength for each of the compounds were analyzed by comparison with the values of the controls. These values were used to determine the absorbed fraction (Fa %) using the JMP® program version 10.0.
On the set-up of series [7]: method as in ZHU et al., 2002. The conditions noted are these: Table S1, PAMPA-GTI, drugs used as standard; ref ZHU et al., 2002; cited from earlier work.
Series [8] relates to formalin-induced licking behavior in mice. Description: Formalin-induced licking behavior. It counts as in vivo, Swiss Webster mice. The conditions noted are these: morphine 2.5 mg/kg i.p., ASA 200 mg/kg p.o., LASSBio-2265 1, 3 and 10 mg/kg p.o., compared to vehicle. Here is the method: This assay was performed as described by Hunskaar et al. and adapted by Gomes et al.. This model was characterized by a response that occurred in two phases. The first phase (acute neurogenic pain) occurred during the first 5 min after the intraplantar injection of formalin, and the second phase (inflammatory pain) occurred 15 to 30 min post-injection. Mice were pretreated with oral doses of LASSBio-2265 (11, at 1, 3 or 10 mg/kg, p.o.), morphine (2.5 mg/kg, i.p.), acetylsalicylic acid (ASA, 200 mg/kg, p.o.), or the vehicle (same amount of DMSO used to solubilize the substances + NaCl 0.9%) 60 min before the administration of formalin. […] Then, mice (n = 7 per group) received 20 μL of formalin (2.5% v/v) in the dorsal surface of the left hind paw. The time that the mice spent licking the injected paw was immediately recorded. […] The final volume administered to mice was 0.1 mL.

[9] abbreviates: PAMPA, 2.75 h, 0.2 mg/mL, pH 7.4.

Values after ≈ are worked out from the molar mass of the structure shown.

On to `CN1C(=O)CN=C(c2ccccc2)c2cc(Cl)ccc21` [Diazepam, reference compound], for which, in [1] (Table S2, PAMPA-BBB), the Classification result is given as “CNS +” and the Pe experimental is 14,30 10-6 cm s-1. In addition, the Pe literatura in [2] is recorded as 16 10-6 cm s-1.

Regarding `Cc1c(N(C)C(=O)C(C)c2ccc(CC(C)C)cc2)c(=O)n(-c2ccccc2)n1C` (stereo not shown) [Compound 10, N-(1,5-dimethyl-3-oxo-2-phenyl-2,3-dihydro-1H-pyrazol-4-yl)-2-(4-isobutylphenyl)-N-methylpropanamide], the solubility (as a rule, the concentration that dissolves in the medium under given conditions) at 4 h in [3] amounted to 47.7 µM (≈ 19.3 µg/mL). Further, the logD in series [4] came to 2.43. In addition, the Papp (as a rule, the rate of passage across a membrane or cell layer, normalised by area and donor concentration) at 2.75 h, 0.2 mg/mL in series [1] (PAMPA, pH 7.4) turned out to be 12.7 ×10⁻⁶ cm/s. Moreover, in [1] (Table S2, PAMPA-BBB), the Classification result is “CNS +” and the Pe experimental was 12,68 10-6 cm s-1. The “PAMPA-BBB Score” value in series [1] is “CNS+ (CNS+ (high predicted BBB permeability) Pe > 4.0 × 10^−6 cm/s)”. Also, the “Plasma Metabolization Rate” value in [5] worked out at 32.50%. Moreover, in series [6], the Papp at 8 h, 0.5 mM came to 2.51 ×10⁻⁶ cm/s; the Classification entry is given as “HIGH (high intestinal permeability: >70%)”; the “Pe Exp” value is 9,15 10-6 cm/s; the Fa is reported as 96,91%.

Take `CC(=O)N1CCN(c2ccc(OCC3COC(Cn4ccnc4)(c4ccc(Cl)cc4Cl)O3)cc2)CC1` (stereo not shown) [Ketoconazole, reference compound]: the “Pe Lit” value in [7] is 3,3 10-6cm/s. Moreover, in series [6], the Classification result was “HIGH (high intestinal permeability: >70%)”, the “Pe Exp” value is recorded as 4,93 10-6 cm/s and the Fa is 84,68%.

As to `O=C(O)c1cc(/N=N/c2ccc(S(=O)(=O)Nc3ccccn3)cc2)ccc1O` [Sulfassalazine], the “Pe Lit” value in [7] was 0,3 10-6cm/s.

For `CCn1cc(C(=O)O)c(=O)c2cc(F)c(N3CCNCC3)nc21` [Enoxacin, reference compound], the Pe experimental in [1] (setting [9]) is on record as 0,53 10-6 cm s-1. For the same compound, the Classification entry in series [1] (Table S2, PAMPA-BBB) is “CNS -”. The Pe literatura in series [2] is reported as 0,9 10-6 cm s-1.

On to `CN1CC[C@]23c4c5ccc(O)c4O[C@H]2[C@@H](O)C=C[C@H]3[C@H]1C5` [morphine, reference compound], for which the “Analgesia in the first phase of the formalin test” value in series [8] is “promoted significant analgesia”.

As for `CNC(=C[N+](=O)[O-])NCCSCc1ccc(CN(C)C)o1` [Ranitidine, reference compound], in series [6], the Classification result is “LOW (low intestinal permeability: <29%)”, the “Pe Exp” value was 0,38 10-6 cm/s and the Fa is 13,48%.

Consider `Nc1nc2c(ncn2COCCO)c(=O)[nH]1` [Acyclovir, reference compound], for which, in series [6], the “Pe Exp” value was 0,08 10-6 cm/s.

As for `CC(C)NCC(O)COc1ccc(CC(N)=O)cc1` (stereo not shown) [Atenolol, reference compound], the Pe experimental in [1] (setting [9]) is 0,46 10-6 cm s-1. Besides, the Classification entry in [1] (Table S2, PAMPA-BBB) is “CNS -”. The “Pe Lit” value in series [7] is 0,1 10-6cm/s. Besides, the Pe literatura in series [2] is given as 0,8 10-6 cm s-1.

As for `Cc1c(NC(=O)C(C)c2ccc(CC(C)C)cc2)c(=O)n(-c2ccccc2)n1C` (stereo not shown) [Compound 7, N-(1,5-dimethyl-3-oxo-2-phenyl-2,3-dihydro-1H-pyrazol-4-yl)-2-(4-isobutylphenyl) propanamide], the melting point (usually the temperature, or range, at which the solid turns liquid) worked out at 151.2 °C. Also, in [3], the solubility at 4 h is 12.1 µM (≈ 4.75 µg/mL). For the same compound, the logD in series [4] was determined as 2.47. The compound also had a Papp at 2.75 h, 0.2 mg/mL in series [1] (PAMPA, pH 7.4) of 12.8 ×10⁻⁶ cm/s. Further, in series [1] (Table S2, PAMPA-BBB), the Classification entry was “CNS +” and the Pe experimental was 12,77 10-6 cm s-1. In addition, in [1], the “PAMPA-BBB Score” value is “CNS+ (CNS+ (high predicted BBB permeability) Pe > 4.0 × 10^−6 cm/s)”. The “Plasma Metabolization Rate” value in [5] stood at 56.13%. In addition, in [6], the apparent permeability (Papp) at 8 h, 0.5 mM was determined as 15.4 ×10⁻⁶ cm/s; the Classification result was “HIGH (high intestinal permeability: >70%)”; the “Pe Exp” value is on record as 15,38 10-6 cm/s; the Fa is 99,71%. The “PAMPA-GI Fa Exp” value in series [6] is listed as 99.71%.

In the case of `O=C(O)Cc1ccccc1Nc1c(Cl)cccc1Cl` [Diclofenac, reference compound], the “Pe Lit” value in [7] is on record as 12,5 10-6cm/s.

Turning to `O=c1ccc2ccccc2o1` [Coumarin, reference compound], in [6], the Classification entry was “HIGH (high intestinal permeability: >70%)”, the “Pe Exp” value is on record as 22,65 10-6 cm/s and the Fa is on record as 99,98%.

In turn, `Cc1c(NC(=O)C(C)c2ccc(-c3ccccc3)c(F)c2)c(=O)n(-c2ccccc2)n1C` (stereo not shown) [Compound 8, N-(1,5-dimethyl-3-oxo-2-phenyl-2,3-dihydro-1H-pyrazol-4-yl)-2-(2-fluoro-[1,1^′-biphenyl]-4-ylil) propanamide] came in with a melting point of 214.8 °C. In series [3], the solubility at 4 h amounted to 59.1 µM (≈ 25.4 µg/mL). In [4], the logD came out at 1.94. The Papp at 2.75 h, 0.2 mg/mL in series [1] (PAMPA, pH 7.4) is 17.2 ×10⁻⁶ cm/s. Moreover, in series [1] (Table S2, PAMPA-BBB), the Classification entry is given as “CNS +” and the Pe experimental is listed as 17,25 10-6 cm s-1. The “PAMPA-BBB Score” value in series [1] was “CNS+ (CNS+ (high predicted BBB permeability) Pe > 4.0 × 10^−6 cm/s)”. Moreover, the “Plasma Metabolization Rate” value in series [5] was found to be 18.66%. In addition, in series [6], the Papp at 8 h, 0.5 mM came to 9.69 ×10⁻⁶ cm/s; the Classification entry is “HIGH (high intestinal permeability: >70%)”; the “Pe Exp” value is reported as 9,69 10-6 cm/s; the Fa is recorded as 97,49%. In addition, the “PAMPA-GI Fa Exp” value in series [6] amounted to 97.49%.

On to `CC(=O)Oc1ccccc1C(=O)O` [acetylsalicylic acid, reference compound], for which the “Analgesia in the first phase of the formalin test” value in series [8] is on record as “only morphine (2.5 mg/kg) promoted significant analgesia”. Also, the “Pe Lit” value in [7] was 3,8 10-6cm/s. For the same compound, in series [6], the Classification entry is on record as “AVERAGE (medium intestinal permeability: 30–69%)”, the “Pe Exp” value was 1,69 10-6 cm/s and the Fa is reported as 47,36%.

For the compound `Cn1c(=O)c2c(ncn2C)n(C)c1=O` [Caffeine, reference compound], the Pe experimental in series [1] (setting [9]) is on record as 0,81 10-6 cm s-1. In addition, the Classification result in series [1] (Table S2, PAMPA-BBB) is “CNS -”. The Pe literatura in series [2] is on record as 1,3 10-6 cm s-1.

For `C[C@]12C=CC(=O)C=C1CC[C@@H]1[C@@H]2C(=O)C[C@@]2(C)[C@H]1CC[C@]2(O)C(=O)CO` [Prednisone, reference compound], the “Pe Exp” value in series [6] was 3,09 10-6 cm/s.
